From US5648366A, “Substituted pyrrolidin-3-yl-alkyl-piperidines” (Merrell Pharmaceuticals Inc., priority 1995, dated 1997) come the findings set out here.

SMILES strings stand for the structures.

One test has as its target T1, NK-3 receptor (Cavia porcellus, UniProt P30098).
T1 construct: freshly collected guinea pig cerebral cortex; from tissue; host or cells: guinea pig cerebral cortex membranes
T1 sequence (P30098 1-440): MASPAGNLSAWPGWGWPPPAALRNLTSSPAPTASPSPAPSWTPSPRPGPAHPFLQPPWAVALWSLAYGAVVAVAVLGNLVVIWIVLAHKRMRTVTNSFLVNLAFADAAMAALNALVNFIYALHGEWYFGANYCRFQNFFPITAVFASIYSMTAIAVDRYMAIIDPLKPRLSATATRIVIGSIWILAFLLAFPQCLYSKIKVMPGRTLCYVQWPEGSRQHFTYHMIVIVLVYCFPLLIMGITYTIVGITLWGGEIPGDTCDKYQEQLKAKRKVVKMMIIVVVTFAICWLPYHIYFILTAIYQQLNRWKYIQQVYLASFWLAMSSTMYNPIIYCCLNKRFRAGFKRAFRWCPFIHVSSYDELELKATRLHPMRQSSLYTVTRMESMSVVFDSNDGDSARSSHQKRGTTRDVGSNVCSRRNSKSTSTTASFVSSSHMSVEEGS
The experiment in a line: Antagonism of iodinated tachykinin (125I-eledoisin) binding to NK3 receptor in guinea pig cerebral cortex. As to the method: (§1) ANTAGONISM OF IODINATED TACHYKININ BINDING TO NK1 AND NK2 RECEPTORS BY PUTATIVE ANTAGONISTS
The NK1 receptor affinity of proposed tachykinin antagonists was evaluated in guinea pig lungs (Keystone Biologicals, Cleveland, Ohio), affinity for the NK2 receptor evaluated in HSKR-1 cells (which are mouse 3T3 fibroblasts expressing the human jejunal NK2 receptor) and NK-3 receptor affinity was evaluated in freshly collected guinea pig cerebral cortex. Tissues or cells were homogenized with a Polytron in 15 volumes of 50 mM Tris-HCl buffer (pH 7.4, 4° C.) and centrifuged. The pellet was resuspended in Tris-HCl buffer and was centrifuged; the pellet was washed twice by resuspension. The final pellet was resuspended at a concentration of 40 mg/ml for tissues (guinea pig lung and cerebral cortex) and 20 mg/ml for cells in incubation buffer and remained at room temperature for at least 15 min prior to use. […] Filter bound radioactivity was quantitated in a gamma counter. […] Specific binding was calculated by subtracting nonspecific binding from total binding. Competition of iodinated SP, NKA, or eledoisin binding by test compounds or standards was expressed as a percentage of this maximum competition. […]

For test [1], the target named is T2, NK1 receptor (Homo sapiens, UniProt P25103).
T2 construct: endogenous in cells; host or cells: UC11 cells
T2 sequence (P25103 whole entry): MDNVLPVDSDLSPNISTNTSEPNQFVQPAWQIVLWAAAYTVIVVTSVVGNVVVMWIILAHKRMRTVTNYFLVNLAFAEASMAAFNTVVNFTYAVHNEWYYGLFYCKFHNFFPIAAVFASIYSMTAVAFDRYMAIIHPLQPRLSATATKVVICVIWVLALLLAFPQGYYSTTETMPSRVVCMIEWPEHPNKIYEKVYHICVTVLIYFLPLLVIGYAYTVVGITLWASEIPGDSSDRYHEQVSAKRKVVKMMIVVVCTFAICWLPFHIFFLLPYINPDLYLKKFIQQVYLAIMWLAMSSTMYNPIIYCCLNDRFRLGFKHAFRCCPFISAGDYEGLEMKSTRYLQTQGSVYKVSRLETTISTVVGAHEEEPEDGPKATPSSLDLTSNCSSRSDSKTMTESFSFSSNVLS
The experiment in a line: Antagonism of NK1 receptor mediated (SP-induced) phosphatidylinositol turnover in UC11 cells. In kind it is cell-based. The method, then:
ANTAGONISM OF NK1 AND NK2 RECEPTOR MEDIATED PHOSPHATID[…]
Tachykinin-mediated inositol phosphate accumulation was measured in UC11 or SKLKB82#3 cells in the presence and absence of NK1 or NK2 receptor antagonists, respectively. Tissues were incubated in Krebs-Henseleit buffer at 37° C. with 95% O2 -5% CO2 gassing. Tissues were then incubated with fresh buffer containing 100 μCi of myo-[2-^3 H(N)] inositol at 37° C. for 60 min with gentle gassing. After washing twice in 5 ml room temperature buffer containing 10 mM LiCl, tissues were incubated for 30 min at room temperature with a buffer change at 15 min. Buffer was removed and Krebs-Henseleit buffer (containing 40 μg/ml bacitracin, 4 μg/ml each of leupeptin and chymostatin, 0.1% bovine serum albumin and 10 mM each of thiorphan and LiCl) added. After 15 min, SP was added to UC11 cells or NKA to SKLKB82#3 cells at various concentrations to start the reaction. After incubation for 60 min at room temperature the reaction was terminated by addition of 930 μl chloroform: methanol (1:2 by volume) to each tube, followed by 310 μl chloroform and 310 μl doubly distilled water. Samples were vortexed, centrifuged, and 0.9 ml of the aqueous (top) phase removed and added to 2 ml ddH2 O. The mixture was vortexed and loaded onto a 50% Bio-Rad AG 1-X8 (formate form, 100-200 mesh) exchange column (Bio-Rad Laboratories, Hercules, Calif.). The columns were washed, in order, with: 1) 10 ml doubly distilled water, 2) 5 ml of 5 mM disodium tetraborate/60 mM sodium formate, and 3) 5 ml of 1M ammonium formate/0.1M formic acid. The third elution was collected and 1 ml counted in 7 ml scintillation fluid. A 50 μl aliquot of the organic (bottom) phase was removed, dried in a scintillation vial and counted in 7 ml scintillation fluid.
The ratio of DPM in the aqueous phase aliquot (total inositol phosphates) to the DPM in the 50 μl organic phase aliquot (total [^3 H]inositol incorporated) was calculated for each sample. Data are expressed as a percent of agonist-induced accumulation of [^3 H]-inositol phosphates over basal levels. The ratios in the presence of test compound and/or standards were compared to the ratios for control samples (i.e. no stimulating agonist). Dose-response graphs were constructed and the abilities of the test compounds to inhibit tachykinin-induced phosphatidyinositol turnover determined with the aid of a computer program. […] Data is expressed as percent stimulation of total inositol phosphate accumulation over basal levels and normalized to the maximum response produced by SP. […] Schild analysis is performed using dose response curves (such as those presented in FIGS. 1a and 1b) to obtain a value indicative of the strength of a competitive antagonist and is expressed as the pA2, which is the negative logarithm of the molar concentration of antagonist which reduces the effect of a dose of agonist to one-half of that expected at the dose of agonist.

Test [2] has as its target NK1 receptor (Cavia porcellus, UniProt P30547). Kind of test: Antagonism of iodinated tachykinin (125I-substance P) binding to NK1 receptor in guinea pig lungs. Details: tissue Keystone Biologicals, Cleveland, Ohio; host or cells: guinea pig lung membranes. As to the method:
as §1
The NK1 receptor affinity of proposed tachykinin antagonists was evaluated in guinea pig lungs (Keystone Biologicals, Cleveland, Ohio), affinity for the NK2 receptor evaluated in HSKR-1 cells (which are mouse 3T3 fibroblasts expressing the human jejunal NK2 receptor) and NK-3 receptor affinity was evaluated in freshly collected guinea pig cerebral cortex. Tissues or cells were homogenized with a Polytron in 15 volumes of 50 mM Tris-HCl buffer (pH 7.4, 4° C.) and centrifuged. The pellet was resuspended in Tris-HCl buffer and was centrifuged; the pellet was washed twice by resuspension. The final pellet was resuspended at a concentration of 40 mg/ml for tissues (guinea pig lung and cerebral cortex) and 20 mg/ml for cells in incubation buffer and remained at room temperature for at least 15 min prior to use. Receptor binding was initiated by addition of 250 ul membrane preparation in duplicate to 0.1 nM of the following radioligands: ^125 I-Bolton Hunter Lys-3 labeled substance P; ^125 iodohistidyl-1-neurokinin A; and ^125 I-Bolton Hunter labeled Lys-4 eledoisin in a final volume of 500 ul of buffer containing 50 mM Tris-HCl (pH 7.4 at room temperature), 0.1% bovine serum albumin, 2 mM MnCl2, 40 ug/ml bacitracin, 4 µg/ml leupeptin and chymostatin, 1 μM thiorphan and various doses of the putative tachykinin antagonists. Incubations were performed at room temperature for 90 min (NK1 receptor assays) or 2 hr (NK2 and NK3 receptor assays); binding was terminated by addition of 50 mM Tris-HCl buffer (pH 7.4, 4° C.) and filtration under vacuum through GF/B filters presoaked with 0.1% polyethyleneimine (NK1 receptor assays) or 0.5% bovine serum albumin (NK2 and NK3 receptor assays). Filter bound radioactivity was quantitated in a gamma counter. Nonspecific binding was defined as binding in the presence of 1 μM substance P, neurokinin A, or eledoisin. Specific binding was calculated by subtracting nonspecific binding from total binding. Competition of iodinated SP, NKA, or eledoisin binding by test compounds or standards was expressed as a percentage of this maximum competition. IC50 values (concentration required to inhibit 50% of receptor binding) were generated for each of the test compounds by nonlinear regression using an iterative curve fitting program (GraphPAD Inplot, San Diego, Calif.).

Chain of NK1 receptor (Cavia porcellus, UniProt P30547) (P30547 whole entry): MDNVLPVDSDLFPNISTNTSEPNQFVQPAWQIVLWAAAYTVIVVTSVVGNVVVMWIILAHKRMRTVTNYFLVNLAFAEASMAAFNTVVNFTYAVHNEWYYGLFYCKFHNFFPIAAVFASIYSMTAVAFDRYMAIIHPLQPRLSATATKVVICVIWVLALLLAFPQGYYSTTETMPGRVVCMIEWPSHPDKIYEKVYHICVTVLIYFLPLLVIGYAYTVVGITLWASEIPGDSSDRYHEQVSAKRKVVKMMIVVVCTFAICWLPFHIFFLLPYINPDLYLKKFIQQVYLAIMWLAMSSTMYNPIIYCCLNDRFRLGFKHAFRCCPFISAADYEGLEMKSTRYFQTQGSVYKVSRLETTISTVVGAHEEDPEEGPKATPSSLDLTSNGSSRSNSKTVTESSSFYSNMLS

With `COc1cc(C(=O)N2CCC(CCN3CCC(C(N)=O)(c4ccccc4)CC3)(c3ccc(Cl)c(Cl)c3)C2)cc(OC)c1OC` (stereo not shown) [Example 3, 1-[2-[3-(3,4-dichloro-phenyl)-1-(3,4,5-trimethoxy-benzoyl)-pyrrolidin-3-yl]-ethyl]-4-phenyl-piperidine-4-carboxylic acid amide], on NK-3 receptor, the “affinity for NK3 receptors (in words)” value is on record as “high affinity”. In addition, the “antagonism of SP induced PI turnover (in words, FIG. 1a)” value on NK1 receptor [1] (UC11 cells) is “dose related antagonism”. Moreover, on NK1 receptor [1] (compound alone), the “agonist activity, PI turnover in UC11 cells (in words)” value is on record as “no agonist activity”. The “affinity for NK1 receptors (in words)” value on NK1 receptor [2] was “high affinity”.
